pIC50: −log10 of the molar value.
Columns and labels:
[1] = molecular target: T1, PAR2 (HT-29 cells, SLIGKV activation) (Homo sapiens, UniProt P55085); experiment: Ca FLIPR TETRA assay, ANTAGONIST mode, stimulation with 8 μM SLIGKV; format: cell-based; details: HT-29 cells
T1 construct: host or cells: HT-29 cells
T1 sequence (P55085 26-397): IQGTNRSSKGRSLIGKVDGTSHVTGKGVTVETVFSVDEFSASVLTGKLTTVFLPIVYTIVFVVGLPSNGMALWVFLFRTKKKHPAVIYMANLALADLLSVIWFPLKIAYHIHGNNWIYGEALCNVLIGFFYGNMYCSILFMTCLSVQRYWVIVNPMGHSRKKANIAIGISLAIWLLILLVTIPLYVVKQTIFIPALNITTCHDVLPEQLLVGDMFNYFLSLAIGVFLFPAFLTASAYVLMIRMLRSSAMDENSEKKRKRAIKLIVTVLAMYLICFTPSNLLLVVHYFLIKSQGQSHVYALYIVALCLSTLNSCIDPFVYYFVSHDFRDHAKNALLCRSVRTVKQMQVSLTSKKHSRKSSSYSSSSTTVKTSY
Method in brief: (§1)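 Antagonist-mode FLIPR Tetra Ca2+ readout: after 30 min r.t. compound pre-incubation, HT-29 cells are challenged with trypsin (3.1 U/mL final), SLIGKV (8 μM), thrombin (1 U/mL) or UTP (0.6 μM). Cells were plated overnight in 1% FBS medium and dye-loaded with Calcium 5; an initial read checks compound agonism.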

[2] = molecular target: T2, PAR2 (HT-29 cells, trypsin activation) (Homo sapiens, UniProt P55085); experiment: Ca FLIPR TETRA assay, ANTAGONIST mode, stimulation with 3.1 U/mL trypsin; format: cell-based; details: HT-29 cells
T2 construct: host or cells: HT-29 cells
T2 sequence (P55085 26-397): T1 sequence (P55085 26-397)
Method in brief: as §1

[3] = test system: Thrombin-stimulated Ca2+ response in HT-29 cells; experiment: Ca FLIPR TETRA assay, ANTAGONIST mode, stimulation with 1 U/mL Thrombin; format: cell-based, human; details: Homo sapiens, HT-29 cells
Method in brief: as §1

[4] = test system: UTP-stimulated Ca2+ response in HT-29 cells; experiment: Ca FLIPR TETRA assay, ANTAGONIST mode, stimulation with 0.6 μM UTP; format: cell-based, human; details: Homo sapiens, HT-29 cells
Method in brief: as §1

[5] = In vivo rat pharmacokinetics (intravenous and oral); details: plasma; for clearance: intravenous 0.5 to 1 mg/kg, read-out: Clp; for Vd: intravenous, read-out: Vss; for bioavailability: oral by gavage; for half-life: read-out: T ½ (converted)
Procedure: Example 61: Protocol for Testing PAR2 Compounds In Vivo Rat Pharmacokinetics Experiments
Compounds delivered by intravenous route were formulated using a solution formulation consisting of 5% N-methylpyrrolidone 10% Vitamin E-TPGS and 85% water (v/v/) or a solution formulation consisting of 25% N-methylpyrrolidone 35% polyethylene glycol 400 and 40% water (v/v/). Intravenous formulations were administered by a bolus injection (over approximately 10 seconds) using a hypodermic needle attaches to a syringe (tail vein). The dose volume was varied from 1 to 2 mL/kg and the dose was varied from 0.5 to 1 mg/kg. Compounds delivered orally were formulated as a solution formulation consisting of 5% N-methylpyrrolidone 10% Vitamin E-TPGS and 85% water (v/v/) or as fine suspension using a cellulose derivative suspending agent with or without the addition of a wetting agent/surfactant. Milling of large particles was performed as needed to reduce particle size using focused electroacoustic milling, homogenization or low energy media milling. A spray-dried solid dispersion was prepared for key compounds using 1:1 combination with cellulose derivatives. Test compounds were administered orally by gavage using a gavage plastic needle attached to a syringe. The dose volume was varied from 5 to 10 mL/kg and the dose was varied from 1 to 600 mg/kg.
Rats were bled by venipuncture (jugular vein) and the samples were collected into tubes containing K3EDTA. The tubes were placed on wet ice until processed. The samples were centrifuged for approximately 10 minutes (at approximately 4° C.) within approximately 30 minutes of collection to prepare plasma or diluted in citrate buffer (1:3) and stored frozen (approximately −30° C.). Thawed plasma or whole blood samples were extracted by protein precipitation using an organic solvent followed by centrifugation. The supernatants were separated by high-performance liquid chromatography coupled to mass spectrometry detection. A calibration curve was prepared using reference standard compounds spiked into either blank plasma or whole blood matrices and extracted similarly to unknown samples. Pharmacokinetic parameters were calculated using non-compartmental analysis.

[6] = stimulation with 3.1 U/mL trypsin
[7] = stimulation with 1 U/mL Thrombin
[8] = antagonist mode, stimulation with 8 μM SLIGKV
[9] = antagonist mode, stimulation with 3.1 U/mL trypsin
[10] = antagonist mode, stimulation with 1 U/mL Thrombin
[11] = antagonist mode, stimulation with 0.6 μM UTP
[12] = antagonist mode, 3.1 U/mL trypsin
[13] = antagonist mode, 1 U/mL Thrombin

## Cc1cc(-c2ccc(F)cc2)nn2cc(C(=O)N3CCN(C(=O)[C@H](O)CC(C)(C)C)[C@@H](C)C3)nc12 [Compound I-9, (R)-1-((S)-4-(6-(4-Fluorophenyl)-8-methylimidazo[1,2-b]pyridazine-2-carbonyl)-2-methylpiperazin-1-yl)-2-hydroxy-4,4-dimethylpentan-1-one]
[1]; stimulation with 8 μM SLIGKV
  pIC50: 8.05
[2]; [6]
  pIC50: 6.96
[3]; [7]
  pIC50: < 5.30
[4]; stimulation with 0.6 μM UTP
  pIC50: < 5.30
[5]
  clearance: 21.7 mL/min/kg
  Vd: 1.4 L/kg
  bioavailability: 57%
  half-life: 1.2 h

## CC1(C)C(=O)NCCN1C(=O)c1cn2nc(-c3ccc(F)cc3)cc(C3CCOCC3)c2n1 [Compound I-29, 4-[6-(4-fluorophenyl)-8-tetrahydropyran-4-yl-imidazo[1,2-b]pyridazine-2-carbonyl]-3,3-dimethyl-piperazin-2-one]
[1]; stimulation with 8 μM SLIGKV
  pIC50: 6.62
[2]; [6]
  pIC50: 6.41
[3]; [7]
  pIC50: < 4.30
[4]; stimulation with 0.6 μM UTP
  pIC50: < 4.30
[5]
  clearance: 3.6 mL/min/kg
  Vd: 1.8 L/kg
  bioavailability: 71%
  half-life: 6.7 h

## CC(C)(O)C(=O)N1CCN(C(=O)c2cn3nc(-c4ccc(F)cc4)cc(C4(C)CC4)c3n2)C(C)(C)C1 [Compound I-32, 1-[4-[6-(4-fluorophenyl)-8-(1-methylcyclopropyl)imidazo[1,2-b]pyridazine-2-carbonyl]-3,3-dimethyl-piperazin-1-yl]-2-hydroxy-2-methyl-propan-1-one]
[1]; stimulation with 8 μM SLIGKV
  pIC50: 7.77
[2]; [6]
  pIC50: 7.68
[3]; [7]
  pIC50: < 4.30
[4]; stimulation with 0.6 μM UTP
  pIC50: < 4.30
[5]
  clearance: 29.3 mL/min/kg
  Vd: 2.2 L/kg
  bioavailability: 39%
  half-life: 1.4 h

## CC(C)c1cc(-c2ccc(C(F)(F)F)c(F)c2)nn2cc(C(=O)N3CCN(C(=O)C(C)(C)O)CC3(C)C)nc12 [Compound I-252]
[1]; [8]
  pIC50: 8.59
[2]; [9]
  pIC50: 8.17
[3]; [10]
  pIC50: < 6.00
[4]; [11]
  pIC50: < 6.00
[5]
  clearance: 4.17 mL/min/kg
  Vd: 1.49 L/kg
  bioavailability: 92%
  half-life: 5.85 h

## Cc1cc(C(=O)N2CCN(C(=O)c3cn4nc(-c5ccc(F)cc5)cc(C(C)C)c4n3)C(C)(C)C2)[nH]n1 [Compound I-303]
[1]; [8]
  pIC50: 8.70
[2]; [9]
  pIC50: 8.70
[3]; [10]
  pIC50: < 6.00
[4]; [11]
  pIC50: < 6.00
[5]
  clearance: 7.15 mL/min/kg
  Vd: 2.04 L/kg
  bioavailability: 69%
  half-life: 5.36 h

## CC(C)(C)c1cc(-c2ccc(F)cc2)nn2cc(C(=O)N3CCN(C(=O)/C=C/C(=O)O)CC3(C)C)nc12 [Compound I-558]
[1]; antagonist mode, 8 μM SLIGKV
  pIC50: 7.73
[2]; [12]
  pIC50: 7.36
[3]; [13]
  pIC50: < 6.00
[4]; antagonist mode, 0.6 μM UTP
  pIC50: < 6.00

## CC(C)(C)c1cc(-c2ccc(F)cc2)nn2cc(C(=O)N3CCN(C(=O)C45CC(C(=O)O)(C4)C5)CC3(C)C)nc12 [Compound I-559]
[1]; antagonist mode, 8 μM SLIGKV
  pIC50: 7.70
[2]; [12]
  pIC50: 7.29
[3]; [13]
  pIC50: < 6.00
[4]; antagonist mode, 0.6 μM UTP
  pIC50: < 6.00

## CC(C)(C)c1cc(-c2ccc(F)cc2)nn2cc(C(=O)N3CCN(C(=O)CCC(=O)O)CC3(C)C)nc12 [Compound I-560, 4-(4-(8-(tert-butyl)-6-(4-fluorophenyl)imidazo[1,2-b]pyridazine-2-carbonyl)-3,3-dimethylpiperazin-1-yl)-4-oxobutanoic acid]
[1]; antagonist mode, 8 μM SLIGKV
  pIC50: 8.31
[2]; [12]
  pIC50: 8.03
[3]; [13]
  pIC50: < 6.00
[4]; antagonist mode, 0.6 μM UTP
  pIC50: < 6.00

## CC(C)(CC(=O)N1CCN(C(=O)c2cn3nc(-c4ccc(F)cc4)cc(C(C)(C)C)c3n2)C(C)(C)C1)C(=O)O [Compound I-561, 4-(4-(8-(tert-butyl)-6-(4-fluorophenyl)imidazo[1,2-b]pyridazine-2-carbonyl)-3,3-dimethylpiperazin-1-yl)-2,2-dimethyl-4-oxobutanoic acid]
[1]; antagonist mode, 8 μM SLIGKV
  pIC50: 9.30
[2]; [12]
  pIC50: 9.15
[3]; [13]
  pIC50: < 6.00
[4]; antagonist mode, 0.6 μM UTP
  pIC50: < 6.00

## CC(C)(C)c1cc(-c2ccc(F)cc2)nn2cc(C(=O)N3CCN(C(=O)C4(C(=O)O)CC4)CC3(C)C)nc12 [Compound I-562]
[1]; antagonist mode, 8 μM SLIGKV
  pIC50: 7.55
[2]; [12]
  pIC50: 6.89
[3]; [13]
  pIC50: < 6.00
[4]; antagonist mode, 0.6 μM UTP
  pIC50: < 6.00

## CC(C)(C)c1cc(-c2ccc(F)cc2)nn2cc(C(=O)N3CN(C(C)(C)C)C(=O)C3(C)C)nc12 [Compound I-564]
[1]; antagonist mode, 8 μM SLIGKV
  pIC50: 6.90
[2]; [12]
  pIC50: 6.71
[3]; [13]
  pIC50: < 6.00
[4]; antagonist mode, 0.6 μM UTP
  pIC50: < 6.00

## CC(C)(C)c1cc(-c2ccc(F)cc2)nn2cc(C(=O)N3CN(Cc4ccccc4)C(=O)C3(C)C)nc12 [Compound I-565]
[1]; antagonist mode, 8 μM SLIGKV
  pIC50: 7.37
[2]; [12]
  pIC50: 7.38
[3]; [13]
  pIC50: < 6.00
[4]; antagonist mode, 0.6 μM UTP
  pIC50: < 6.00

## CC(C)(C)c1cc(-c2ccc(F)cc2)nn2cc(C(=O)N3CCN(C(=O)CCC#N)CC3(C)C)nc12 [Compound I-566]
[1]; antagonist mode, 8 μM SLIGKV
  pIC50: 8.52
[2]; [12]
  pIC50: 8.29
[3]; [13]
  pIC50: < 6.00
[4]; antagonist mode, 0.6 μM UTP
  pIC50: < 6.00

## CC1(C)C(=O)NCCN1C(=O)c1cn2nc(-c3ccc(F)cc3)cc(-c3ccsc3)c2n1 [Compound I-567, 4-(6-(4-fluorophenyl)-8-(thiophen-3-yl)imidazo[1,2-b]pyridazine-2-carbonyl)-3,3-dimethylpiperazin-2-one]
[1]; antagonist mode, 8 μM SLIGKV
  pIC50: 7.64
[2]; [12]
  pIC50: 7.30
[3]; [13]
  pIC50: < 6.00
[4]; antagonist mode, 0.6 μM UTP
  pIC50: < 6.00

## CC1(C)C(=O)NCCN1C(=O)c1cn2nc(-c3ccc(F)cc3)cc(-c3cccnc3)c2n1 [Compound I-568]
[1]; antagonist mode, 8 μM SLIGKV
  pIC50: 6.28
[2]; [12]
  pIC50: 6.21
[3]; [13]
  pIC50: < 6.00
[4]; antagonist mode, 0.6 μM UTP
  pIC50: < 6.00

## CC1(C)C(=O)NCCN1C(=O)c1cn2nc(-c3ccc(F)cc3)cc(-c3ccncc3)c2n1 [Compound I-569]
[1]; antagonist mode, 8 μM SLIGKV
  pIC50: 6.40
[2]; [12]
  pIC50: 6.19
[3]; [13]
  pIC50: < 6.00
[4]; antagonist mode, 0.6 μM UTP
  pIC50: < 6.00

## CC(C)(C)c1cc(-c2ccc(Cl)cc2)nn2cc(C(=O)N3CCN(C(=O)[C@H]4C[C@H](C(=O)O)C4)CC3(C)C)nc12 [Compound I-570]
[1]; antagonist mode, 8 μM SLIGKV
  pIC50: 8.80
[2]; [12]
  pIC50: 8.66
[3]; [13]
  pIC50: < 6.00
[4]; antagonist mode, 0.6 μM UTP
  pIC50: < 6.00

## CC(C)(CC(=O)O)C(=O)N1CCN(C(=O)c2cn3nc(-c4ccc(F)cc4)cc(C(C)(C)C)c3n2)C(C)(C)C1 [Compound I-571]
[1]; antagonist mode, 8 μM SLIGKV
  pIC50: 8.96
[2]; [12]
  pIC50: 8.48
[3]; [13]
  pIC50: 6.01
[4]; antagonist mode, 0.6 μM UTP
  pIC50: < 6.00

From patent publication US20190119282A1, “IMIDAZOPYRIDAZINES USEFUL AS INHIBITORS OF THE PAR-2 SIGNALING PATHWAY” (Vertex Pharmaceuticals Incorporated, priority 2013, published 2019)
